Columns and labels:
[1] = test system: A2780 cells; assay: Cell Proliferation Assay (Cell Titer Glo), A2780; format: cell-based; conditions: Homo sapiens; cell proliferation, A2780 cells; read-out: CPEC50 A2780
How it was run: (§1)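 Cells seeded at 1000/well, allowed to adhere 3-5 h, then exposed to DMSO-dissolved compounds for 3 days at 37° C., 5% CO2. Medium replaced before Cell Titer Glo addition; luminescence read after 10 min.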

[2] = test system: PC3MM cells; assay: Cell Proliferation Assay (Cell Titer Glo), PC3MM; format: cell-based; conditions: cell proliferation, PC3MM cells; read-out: CPEC50 PC3MM
How it was run: as §1

[3] = molecular target: T1, PDK1 kinase (Homo sapiens, UniProt O15530); assay: PDK1 Kinase Alpha Screen Assay; format: biochemical; conditions: PDK1 Kinase Alpha Screen Assay; read-out: PDK1 IC50
T1 sequence (O15530 1-556): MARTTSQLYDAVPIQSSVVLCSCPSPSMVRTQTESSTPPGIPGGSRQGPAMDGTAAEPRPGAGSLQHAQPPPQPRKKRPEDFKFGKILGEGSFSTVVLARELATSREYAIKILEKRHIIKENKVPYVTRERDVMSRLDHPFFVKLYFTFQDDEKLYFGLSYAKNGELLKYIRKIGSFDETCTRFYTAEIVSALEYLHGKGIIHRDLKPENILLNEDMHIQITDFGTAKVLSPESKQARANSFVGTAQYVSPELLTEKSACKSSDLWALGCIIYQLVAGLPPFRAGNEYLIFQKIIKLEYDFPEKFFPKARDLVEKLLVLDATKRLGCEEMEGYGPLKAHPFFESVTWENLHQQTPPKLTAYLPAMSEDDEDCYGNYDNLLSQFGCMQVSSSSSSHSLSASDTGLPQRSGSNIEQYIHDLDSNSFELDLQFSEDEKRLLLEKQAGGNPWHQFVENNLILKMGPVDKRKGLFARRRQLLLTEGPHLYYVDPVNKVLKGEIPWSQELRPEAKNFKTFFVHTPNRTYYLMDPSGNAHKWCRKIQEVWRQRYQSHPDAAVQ
How it was run: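 PDK1 phosphorylated 50 nM biotinylated PDK1-4 peptide with 10 uM ATP in Tris pH 7.5, 10 mM MgCl2, 2 mM DTT, 2.5% DMSO for 3-18 hours. After EDTA stop, phosphopeptide was detected by AlphaScreen using phospho-(Ser/Thr) PKA substrate antibody with protein A/streptavidin beads, read after overnight incubation.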

[4] = test system: PC-3 cells; assay: Cell Proliferation Assay (Cell Titer Glo), PC-3 cell line; format: cell-based; conditions: Homo sapiens, PC-3, cell proliferation, PC3 cells; read-out: CPEC50 PC3
How it was run: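 PC-3 cells, 1000 cells/well, left to adhere 3-5 h, then exposed for 3 days at 37° C to compounds as 1:3 serial dilutions from 500× DMSO stocks diluted in growth medium. Medium then replaced with fresh medium and viability read by Cell Titer Glo luminescence.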

SMILES: NS(=O)(=O)c1ccc(Nc2ncc3cccc(OC4CCNCC4)c3n2)cc1 [Compound 718, 4-(8-(piperidin-4-yloxy)quinazolin-2-ylamino)benzenesulfonamide]
- EC50 [1]: < 5 µM
- EC50 [2]: < 5 µM
- IC50 [3]: < 5 µM
- EC50 [4]: < 5 µM

SMILES: CC(C)N1CCC(Oc2cccc3cnc(Nc4ccc(S(N)(=O)=O)cc4)nc23)CC1 [Compound 725, 4-(8-(1-isopropylpiperidin-4-yloxy)quinazolin-2-ylamino)benzenesulfonamide]
- EC50 [1]: < 5 µM
- EC50 [2]: < 5 µM
- IC50 [3]: < 5 µM
- EC50 [4]: < 5 µM

SMILES: NS(=O)(=O)c1ccc(Nc2ncc3cccc(O[C@@H]4CN5CCC4CC5)c3n2)cc1 [Compound 744, (S)-4-(8-(quinuclidin-3-yloxy)quinazolin-2-ylamino)benzenesulfonamide]
- EC50 [1]: < 5 µM
- EC50 [2]: < 5 µM
- IC50 [3]: < 5 µM
- EC50 [4]: < 5 µM

SMILES: CN1C2CCC1CC(Oc1cccc3cnc(Nc4ccc(S(N)(=O)=O)cc4)nc13)C2 (stereo not drawn) [Compound 749, 4-(8-(8-methyl-8-azabicyclo[3.2.1]octan-3-yloxy)quinazolin-2-ylamino)benzenesulfonamide]
- EC50 [1]: < 5 µM
- EC50 [2]: < 5 µM
- IC50 [3]: < 5 µM
- EC50 [4]: < 5 µM

SMILES: NS(=O)(=O)c1ccc(Nc2ncc3ccc(OC4CCNCC4)cc3n2)cc1 [Compound 750, 4-(7-(piperidin-4-yloxy)quinazolin-2-ylamino)benzenesulfonamide]
- EC50 [1]: < 5 µM
- EC50 [2]: < 5 µM
- IC50 [3]: < 5 µM
- EC50 [4]: < 5 µM

SMILES: CN1CCC(Oc2ccc3cnc(Nc4ccc(S(N)(=O)=O)cc4)nc3c2)CC1 [Compound 763, 4-(7-(1-methylpiperidin-4-yloxy)quinazolin-2-ylamino)benzenesulfonamide]
- EC50 [1]: < 5 µM
- EC50 [2]: < 5 µM
- IC50 [3]: < 5 µM
- EC50 [4]: < 5 µM

SMILES: Cc1csc(NC(=O)c2ccc3cnc(Nc4ccc(S(N)(=O)=O)cc4)nc3c2)c1C(N)=O [Compound 839, N-(3-carbamoyl-4-methylthiophen-2-yl)-2-(4-sulfamoylphenylamino)quinazoline-7-carboxamide]
- EC50 [1]: < 5 µM
- EC50 [2]: < 5 µM
- IC50 [3]: < 5 µM

SMILES: NS(=O)(=O)c1ccc(Nc2ncc3ccc(-c4ccc5c(c4)CCNC5=O)cc3n2)cc1 [Compound 840, 4-(7-(1-oxo-1,2,3,4-tetrahydroisoquinolin-6-yl)quinazolin-2-ylamino)benzenesulfonamide]
- EC50 [1]: 5 to 10 µM
- EC50 [2]: < 5 µM
- IC50 [3]: < 5 µM

SMILES: CCN1CC(Oc2cccc3cnc(Nc4ccc(S(N)(=O)=O)cc4)nc23)C1 [Compound 841, 4-(8-(1-ethylazetidin-3-yloxy)quinazolin-2-ylamino)benzenesulfonamide]
- EC50 [1]: < 5 µM
- EC50 [2]: < 5 µM
- IC50 [3]: < 5 µM

SMILES: Cc1ccc(C(N)=O)c(NC(=O)c2ccc3cnc(Nc4ccc(S(N)(=O)=O)cc4)nc3c2)c1 [Compound 842, N-(2-carbamoyl-5-methylphenyl)-2-(4-sulfamoylphenylamino)quinazoline-7-carboxamide]
- EC50 [1]: 5 to 10 µM
- EC50 [2]: < 5 µM
- IC50 [3]: < 5 µM

SMILES: NS(=O)(=O)c1ccc(Nc2ncc3ccc(-c4cnc(=O)[nH]c4)cc3n2)cc1 [Compound 844, 4-(7-(2-oxo-1,2-dihydropyrimidin-5-yl)quinazolin-2-ylamino)benzenesulfonamide]
- EC50 [1]: 5 to 10 µM
- EC50 [2]: < 5 µM
- IC50 [3]: < 5 µM

SMILES: NS(=O)(=O)c1ccc(Nc2ncc3ccc(Br)c(OC4CCNCC4)c3n2)cc1 [Compound 845, 4-(7-bromo-8-(piperidin-4-yloxy)quinazolin-2-ylamino)benzenesulfonamide]
- EC50 [1]: < 5 µM
- EC50 [2]: < 5 µM
- IC50 [3]: < 5 µM

SMILES: Cc1nn(C)c(C)c1-c1ccc2cnc(Nc3ccc(S(N)(=O)=O)cc3)nc2c1 [Compound 848, 4-(7-(1,3,5-trimethyl-1H-pyrazol-4-yl)quinazolin-2-ylamino)benzenesulfonamide]
- EC50 [1]: < 5 µM
- EC50 [2]: < 5 µM
- IC50 [3]: < 5 µM

From patent publication US7932262B2 (Novartis AG, priority 2006, dated 2011)
